Here are results for 1 molecule from paper PMC6342556 (ACS chemical neuroscience, 2018).

In the experiment the target is serotonin transporter (hSERT) (Homo sapiens, UniProt P31645). Description: fluorometric uptake. The format is cell-based.
serotonin transporter (hSERT), sequence (P31645 whole entry): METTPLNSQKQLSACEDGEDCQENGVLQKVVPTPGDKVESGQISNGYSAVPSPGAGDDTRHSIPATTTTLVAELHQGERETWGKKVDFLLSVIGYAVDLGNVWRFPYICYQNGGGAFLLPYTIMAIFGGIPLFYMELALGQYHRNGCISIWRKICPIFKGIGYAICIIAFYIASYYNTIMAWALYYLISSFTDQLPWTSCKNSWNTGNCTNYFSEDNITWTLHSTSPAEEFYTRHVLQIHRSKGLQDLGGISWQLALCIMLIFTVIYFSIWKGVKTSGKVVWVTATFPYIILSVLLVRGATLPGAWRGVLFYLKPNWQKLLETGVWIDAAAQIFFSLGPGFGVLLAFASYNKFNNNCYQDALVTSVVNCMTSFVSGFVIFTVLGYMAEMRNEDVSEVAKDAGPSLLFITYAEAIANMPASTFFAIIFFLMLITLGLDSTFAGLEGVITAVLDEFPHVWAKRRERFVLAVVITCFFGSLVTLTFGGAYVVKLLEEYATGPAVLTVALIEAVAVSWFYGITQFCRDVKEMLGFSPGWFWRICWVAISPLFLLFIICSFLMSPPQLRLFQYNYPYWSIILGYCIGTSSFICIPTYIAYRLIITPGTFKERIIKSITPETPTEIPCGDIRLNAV

Regarding `NCCc1ccc2[nH]c3ccccc3c(=O)c2c1` [FFN54], the “fluorometric uptake (5 μM) in hSERT-HEK cells with and without imipramine; S/B =” value was “FFN54 showed hSERT-dependent cell uptake in a multi-well fluorometric assay using hSERT-transfected human kidney cells”.
